According to article PMC12162926, “A novel strategy for identifying hepatotoxic constituents in traditional Chinese medicine using dose-normalized intracellular accumulation as a cytotoxicity indicator: a case study of Jinlingzi San” (Frontiers in Pharmacology, 2025):

Columns and labels:
L-02 cells [1] = experiment: Cell growth inhibition assay (CCK-8); type: cell-based, human; conditions: single compounds; for IC50 (cell viability): L-02, 24 h exposure; for IC50: Homo sapiens, L02, L-02, 24 h exposure, read-out: IC50 (cell viability)
L-02 cells [2] = experiment: Intracellular identification of L-02 cell-uptake components by LC–MS/MS; type: in vitro ADME, human; conditions: L-02 exposed to JLZS-containing medium 6.5 mg/mL for 2 h
Method: The powder of 25 g FT and 25 g RC was evenly blended and then refluxed twice with six-fold 50% ethanol (1: 6, w/v) for 1 h; the collected filtrate was evaporated to dryness and further dissolved in DMSO, after filtering using the 0.22-µm cellulose acetate membrane. JLZS-containing medium (6.5 mg/mL) was freshly prepared by diluting the filtrate with RPMI-1640. Likewise, RC-containing medium was freshly prepared in the same method independently.
L-02 cells were seeded on 9-cm-diameter cell culture plates; after ∼80% confluent, the cultured cells were incubated with 6.5 mg/mL JLZS-containing medium. After 2-h exposure, L-02 cells were quickly washed free of culture medium with cold PBS (−) twice and harvested with 1 mL of 0.25% trypsin-EDTA for cell isolation. The cell suspension (∼5 × 10^6 cells) was spun down, and the cells were further washed twice in cold PBS (−). Then, 200 µL of methanol was used to lyse the collected cells with vortex mixing for 1 min. The cell lysates were centrifuged at 12,000 rpm for 4 min, and 10 μL of the centrifugal supernatant was injected into the LC–MS/MS system for identified analysis.
The LC–MS/MS system consisted of a Thermo TSQ Quantum Ultra triple-quadrupole mass spectrometer equipped with an electrospray ionization source (San Jose, CA, United States). LCquan quantitation software (version 2.5.6, Thermo Fisher Scientific, Waltham, MA, USA) was used to control the LC–MS/MS system for data acquisition and analysis. Analytes and IS separation were conducted using a Waters XTerra® MS C18 column (3.0 mm × 50 mm, 5 µm) maintained at 20 °C. By injecting 5 µL samples with a flow rate of 0.2 mL/min, chromatographic separation was achieved using a mobile phase of 0.1% formic acid–water (A) and methanol (B) via gradient elution, 0.0–2.0 min, 35%–50% B; 2.0–2.1 min, 50%–55% B; 2.1–2.5 min, 55%–60% B; 2.5–14.0 min, 60% B. The analytes and IS were detected in the ESI source by polarity switching from positive for 0.0–8.0 min to negative-ion modes for 8.5–14.0 min in a single run with multiple reaction monitoring (MRM).

L-02 cells [3] = experiment: Intracellular accumulation in L-02 cells by LC–MS/MS; type: in vitro ADME, human; conditions: for intracellular uptake in the JLZS group compared with the RC group: L-02, JLZS 6.5 mg/mL vs RC 3.25 mg/mL; for intracellular uptake in the JLZS group compared with the RC group / Intracellular concentration: n = 6; for Intracellular concentration: L-02, JLZS extracts 6.5 mg/mL
[4] = Stability of analytes in cell lysates (LC–MS/MS method validation); type: physicochemical; conditions: n=3; for Post-preparation stability RE%: 4 ℃, 24 h at autosampler; for Short-term stability RE%: 12 h at room temperature; for Long-term stability RE%: -80℃ for a month; for Freeze-thaw stability RE%: three freeze-thaw
Method: The stability of seven analytes including short-term stability (12 h at room temperature), post-preparation stability at 4 ℃ (24 h at autosampler), freeze-thaw stability (three freeze-thaw stability) and long-term stability (-80℃ for a month) was tested by analyzing three replicates at low and high QC levels during various sample storage and handling process.

[5] = set-up: method as in Gu et al., 2021; conditions: pharmacokinetic level, JLZS vs single herb; ref Gu et al., 2021; cited from earlier work

Row | SMILES | IC50 (cell viability) (L-02 cells [1]) | detection in cell lysates (L-02 cells [2]) | Intracellular concentration (L-02 cells [3]; time 0.25 h) [ng/mL] | Intracellular concentration (L-02 cells [3]; time 0.5 h) [ng/mL] | Intracellular concentration (L-02 cells [3]; time 1 h) [ng/mL] | Intracellular concentration (L-02 cells [3]; time 1.5 h) [ng/mL] | Intracellular concentration (L-02 cells [3]; time 2 h) [ng/mL] | Intracellular concentration (L-02 cells [3]; time 3 h) [ng/mL] | Intracellular concentration (L-02 cells [3]; time 5 h) [ng/mL] | Intracellular concentration (L-02 cells [3]; time 8 h) [ng/mL] | Post-preparation stability RE% ([4]; high QC level) [%] | Post-preparation stability RE% ([4]; low QC level) [%] | Short-term stability RE% ([4]; high QC level) [%] | Short-term stability RE% ([4]; low QC level) [%] | Long-term stability RE% ([4]; high QC level) [%] | Long-term stability RE% ([4]; low QC level) [%] | Freeze-thaw stability RE% ([4]; high QC level) [%] | Freeze-thaw stability RE% ([4]; low QC level) [%] | elimination in the JLZS group compared with the single-herb group [5] | other results
1 | COc1ccc2c(c1OC)CN(C)CCc1cc3c(cc1C(=O)C2)OCO3 [ALL, allocryptopine] | not detected IC50 values within the set concentration range |  |  |  |  |  |  |  |  |  |  |  |  |  |  |  |  |  |  | 
2 | COc1ccc2cc3[n+](cc2c1OC)CCc1cc2c(cc1-3)OCO2 [BER, berberine] |  | found in the cell lysates | 3.2 ± 0.5 | 3.7 ± 0.3 | 5.5 ± 1.3 | 7.2 ± 2.5 | 8.3 ± 4.0 | 10.1 ± 1.7 | 12.3 ± 2.5 | 15.6 ± 4.9 | 3.1 | 1.8 | 2.5 | 5.6 | 1.2 | 1.8 | 6.9 | 5.6 |  | intracellular uptake in the JLZS group compared with the RC group (L-02 cells [3]): decreased significantly; IC50 (L-02 cells [1]): 41.2 µg/mL
3 | c1c2c(cc3c1OCO3)-c1cc3ccc4c(c3c[n+]1CC2)OCO4 [COP, coptisine] |  | found in the cell lysates | 38.3 ± 4.9 | 44.0 ± 11.4 | 67.5 ± 7.7 | 84.4 ± 21.2 | 98.1 ± 34.8 | 134.8 ± 24.4 | 197.6 ± 45.9 | 261.8 ± 60.2 | 6.8 | -0.6 | 6.2 | 5.6 | 6.6 | 4.0 | 5.0 | 0.7 |  | intracellular uptake in the JLZS group compared with the RC group (L-02 cells [3]): decreased significantly; dose-normalized intracellular accumulation (ranking) (L-02 cells [3]; ratio of highest intracellular accumulation versus content in JLZS extracts, L-02): the highest; IC50 (L-02 cells [1]): 14 µg/mL
4 | COc1cc2c(cc1OC)[C@H]1[C@@H](C)c3ccc(OC)c(OC)c3CN1CC2 [COR, corydaline] | not detected IC50 values within the set concentration range |  |  |  |  |  |  |  |  |  |  |  |  |  |  |  |  |  | decreased significantly | 
5 | COc1cc2c(cc1OC)-c1c(C)c3ccc(OC)c(OC)c3c[n+]1CC2 [DHC, dehydrocorydaline] | not detected IC50 values within the set concentration range | found in the cell lysates | 15.2 ± 2.9 | 26.1 ± 3.0 | 53.1 ± 4.0 | 71.9 ± 5.5 | 74.8 ± 6.2 | 82.0 ± 7.5 | 122.0 ± 8.7 | 98.2 ± 9.6 | 6.6 | -0.2 | 8.8 | -2.4 | 1.3 | 2.3 | 0.4 | -0.6 | decreased significantly | 
6 | COc1cc2c(cc1O)CC[n+]1cc3c(OC)c(OC)ccc3cc1-2 [JAT, jatrorrhizine] | not detected IC50 values within the set concentration range | found in the cell lysates | 13.4 ± 0.2 | 13.8 ± 0.8 | 14.9 ± 0.8 | 15.8 ± 1.8 | 16.3 ± 1.9 | 19.6 ± 1.0 | 21.2 ± 3.5 | 26.2 ± 6.0 | 4.7 | -0.2 | 8.0 | 5.3 | 4.0 | 1.9 | 8.0 | 2.9 |  | 
7 | CN1CCc2cc3c(cc2C(=O)Cc2ccc4c(c2C1)OCO4)OCO3 [PRO, protopine] | not detected IC50 values within the set concentration range |  |  |  |  |  |  |  |  |  |  |  |  |  |  |  |  |  |  | 
8 | C[C@@H]1O[C@@H](OC[C@H]2O[C@@H](Oc3c(-c4ccc(O)c(O)c4)oc4cc(O)cc(O)c4c3=O)[C@H](O)[C@@H](O)[C@@H]2O)[C@H](O)[C@H](O)[C@H]1O [RUT, rutin] | not detected IC50 values within the set concentration range |  |  |  |  |  |  |  |  |  |  |  |  |  |  |  |  |  |  | 
9 | COc1ccc2c(c1OC)CN1CCc3cc4c(cc3C1C2)OCO4 (stereo not shown) [THB, tetrahydroberberine] | not detected IC50 values within the set concentration range |  |  |  |  |  |  |  |  |  |  |  |  |  |  |  |  |  | decreased significantly | 
10 | COc1cc2c(cc1OC)[C@@H]1Cc3ccc(OC)c(OC)c3CN1CC2 [THP, tetrahydropalmatine] | not detected IC50 values within the set concentration range |  |  |  |  |  |  |  |  |  |  |  |  |  |  |  |  |  | decreased significantly | 
